Source: US20250230193A1, “CYCLIC COMPOUND HAVING SELECTIVE KRAS INHIBITORY EFFECT ON HRAS AND NRAS” (CHUGAI SEIYAKU KABUSHIKI KAISHA, priority 2022, published 2025)

How the values were obtained:
[1] = molecular target: GDP-bound NRAS wild-type protein (Homo sapiens, UniProt P01111); test: Binding to NRAS by surface plasmon resonance (SPR), Single Cycle Kinetics; conditions: KD ratio NRAS/KRAS, SPR, GDP-bound wild-type proteins
[2] = molecular target: GDP-bound HRAS wild-type protein (Homo sapiens, UniProt P01112); test: Binding to HRAS by surface plasmon resonance (SPR), Single Cycle Kinetics; conditions: KD ratio HRAS/KRAS, SPR, GDP-bound wild-type proteins
Sequence of GDP-bound HRAS wild-type protein (P01112 whole entry): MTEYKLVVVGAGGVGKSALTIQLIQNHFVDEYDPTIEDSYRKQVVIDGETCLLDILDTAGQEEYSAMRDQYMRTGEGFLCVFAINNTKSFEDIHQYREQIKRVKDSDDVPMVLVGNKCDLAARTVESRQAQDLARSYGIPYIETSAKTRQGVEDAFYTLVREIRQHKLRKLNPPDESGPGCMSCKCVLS

Sequence of GDP-bound NRAS wild-type protein (P01111 whole entry): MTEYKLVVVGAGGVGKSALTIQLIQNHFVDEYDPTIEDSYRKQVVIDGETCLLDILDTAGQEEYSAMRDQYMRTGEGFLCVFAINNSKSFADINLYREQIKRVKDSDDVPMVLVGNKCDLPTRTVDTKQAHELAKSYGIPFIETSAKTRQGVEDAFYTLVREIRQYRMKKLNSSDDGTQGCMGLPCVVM

| SMILES | NRAS/KRAS (ratio of KD value with respect to GDP-bound NRAS wild-type protein to KD value with respect to KRAS) [1] | HRAS/KRAS (ratio of KD value with respect to GDP-bound HRAS wild-type protein to KD value with respect to KRAS) [2] |
| --- | --- | --- |
| C#CC[C@H]1C(=O)N[C@@H]([C@@H](C)CC)C(=O)N(C)CC(=O)N(C)[C@H]2C/C=C\CCN(C2=O)[C@@H](Cc2ccc(C)cc2)C(=O)N(C)CC(=O)N[C@@H](CCc2ccc(C(F)(F)F)c(Cl)c2)C(=O)N2CC3(CC3)C[C@H]2C(=O)NC2(CC(C)(C)C2)C(=O)N(C)[C@@H](C2CCCC2)C(=O)N(C)[C@H](C(=O)N(C)C)CC(=O)N1C [PP2982] | A (a compound having 10 or more and less than 20 is denoted as A) | A (a compound having 10 or more and less than 20 is denoted as A) |
| CCC[C@H]1C(=O)N[C@@H]([C@@H](C)CC)C(=O)N(C)CC(=O)N(C)[C@H]2C/C=C\CCN(C2=O)[C@@H](Cc2ccc(C(F)(F)F)cc2)C(=O)N(C)CC(=O)N[C@@H](CCc2ccc(C(F)(F)F)c(Cl)c2)C(=O)N2CC3(CC3)C[C@H]2C(=O)NC2(CC(C)(C)C2)C(=O)N(C)[C@@H]([C@@H](C)CC)C(=O)N(C)[C@H](C(=O)N(C)C)CC(=O)N1C [PP2983] | AA (a compound having 20 or more is denoted as AA) | A (a compound having 10 or more and less than 20 is denoted as A) |
| CCC[C@H]1C(=O)N[C@@H](C2CCCC2)C(=O)N(C)CC(=O)N(C)[C@H]2C/C=C\CCN(C2=O)[C@@H](Cc2ccc(C(F)(F)F)cc2)C(=O)N(C)CC(=O)N[C@@H](CCc2ccc(C(F)(F)F)c(Cl)c2)C(=O)N2C[C@H](OCC)C[C@H]2C(=O)NC2(CC(C)(C)C2)C(=O)N(C)[C@@H](C2CCCC2)C(=O)N(C)[C@H](C(=O)N(C)C)CC(=O)N1C [PP2984] | A (a compound having 10 or more and less than 20 is denoted as A) | B (a compound having 3 or more and less than 10 is denoted as B) |
| CCC[C@H]1C(=O)N[C@@H]([C@@H](C)CC)C(=O)N(C)CC(=O)N(C)[C@H]2C/C=C\CCN(C2=O)[C@@H](Cc2ccc(C(F)(F)F)cc2)C(=O)N(C)CC(=O)N[C@@H](CCc2ccc(C(F)(F)F)c(Cl)c2)C(=O)N2CC3(CC3)C[C@H]2C(=O)NC2(CC(C)(C)C2)C(=O)N(C)[C@@H](CC(F)(F)F)C(=O)N(C)[C@H](C(=O)N(C)C)CC(=O)N1C [PP2985] | AA (a compound having 20 or more is denoted as AA) | A (a compound having 10 or more and less than 20 is denoted as A) |
| CCC[C@H]1C(=O)N[C@@H](C2CCCC2)C(=O)N(C)CC(=O)N(C)[C@H]2C/C=C\CCN(C2=O)[C@@H](Cc2ccc(C(F)(F)F)cc2)C(=O)N(C)CC(=O)N[C@@H](CCc2ccc(C(F)(F)F)c(Cl)c2)C(=O)N2CC3(CC3)C[C@H]2C(=O)NC2(CC(C)(C)C2)C(=O)N(C)[C@@H](C2CCCC2)C(=O)N(C)[C@H](C(=O)N(C)C)CC(=O)N1C [PP2986] | AA (a compound having 20 or more is denoted as AA) | A (a compound having 10 or more and less than 20 is denoted as A) |
| CCC[C@H]1C(=O)N[C@@H]([C@@H](C)CC)C(=O)N(C)CC(=O)N(C)[C@H]2C/C=C\CCN(C2=O)[C@@H](Cc2ccc(C(F)(F)F)cc2)C(=O)N(C)CC(=O)N[C@@H](CCc2ccc(C(F)(F)F)c(Cl)c2)C(=O)N2CC3(CC3)C[C@H]2C(=O)NC2(CC(C)(C)C2)C(=O)N(C)[C@@H](CC(C)C)C(=O)N(C)[C@H](C(=O)N(C)C)CC(=O)N1C [PP2987] | AA (a compound having 20 or more is denoted as AA) | A (a compound having 10 or more and less than 20 is denoted as A) |
| CCC[C@H]1C(=O)N[C@@H](C2CCCC2)C(=O)N(C)CC(=O)N(C)[C@H]2C/C=C\CCN(C2=O)[C@@H](Cc2ccc(C)cc2)C(=O)N(C)CC(=O)N[C@@H](CCc2cc(F)c(C(F)(F)F)c(F)c2)C(=O)N2C[C@H](OCC)C[C@H]2C(=O)NC2(CC(C)(C)C2)C(=O)N(C)[C@@H](C2CCCC2)C(=O)N(C)[C@H](C(=O)N(C)C)CC(=O)N1C [PP2988] | B (a compound having 3 or more and less than 10 is denoted as B) | B (a compound having 3 or more and less than 10 is denoted as B) |
| CCC[C@H]1C(=O)N[C@@H](C2CCCC2)C(=O)N(C)CC(=O)N(C)[C@H]2C/C=C\CCN(C2=O)[C@@H](Cc2ccc(C)cc2)C(=O)N(C)CC(=O)N[C@@H](CCc2cc(F)c(C(F)(F)F)c(F)c2)C(=O)N2C[C@H](OCC)C[C@H]2C(=O)NC2(CC(C)(C)C2)C(=O)N(C)[C@@H](CC(C)(C)C)C(=O)N(C)[C@H](C(=O)N(C)C)CC(=O)N1C [PP2989] | AA (a compound having 20 or more is denoted as AA) | A (a compound having 10 or more and less than 20 is denoted as A) |
| CCC[C@H]1C(=O)N[C@@H](C2CCCC2)C(=O)N(C)CC(=O)N(C)[C@H]2C/C=C\CCN(C2=O)[C@@H](Cc2ccc(C)cc2)C(=O)N(C)CC(=O)N[C@@H](CCc2ccc(C(F)(F)F)c(OC)c2)C(=O)N2C[C@H](OCC)C[C@H]2C(=O)NC2(CC(C)(C)C2)C(=O)N(C)[C@@H](C2CCCC2)C(=O)N(C)[C@H](C(=O)N(C)C)CC(=O)N1C [PP2992] | AA (a compound having 20 or more is denoted as AA) | A (a compound having 10 or more and less than 20 is denoted as A) |
| CCC[C@H]1C(=O)N[C@@H]([C@@H](C)CC)C(=O)N(C)CC(=O)N(C)[C@H]2C/C=C\CCN(C2=O)[C@@H](Cc2ccc(C)cc2)C(=O)N(C)CC(=O)N[C@@H](CCc2cc(F)c(C(F)(F)F)c(F)c2)C(=O)N2C[C@H](OCC)C[C@H]2C(=O)NC2(CC(C)(C)C2)C(=O)N(C)[C@@H](CC(F)(F)F)C(=O)N(C)[C@H](C(=O)N(C)C)CC(=O)N1C [PP2993] | A (a compound having 10 or more and less than 20 is denoted as A) | A (a compound having 10 or more and less than 20 is denoted as A) |
| CCC[C@H]1C(=O)N[C@@H](C2CCCC2)C(=O)N(C)CC(=O)N(C)[C@H]2C/C=C\CCN(C2=O)[C@@H](Cc2ccc(C)cc2)C(=O)N(C)CC(=O)N[C@@H](CCc2ccc(C(F)(F)F)c(OC)c2)C(=O)N2CC3(CC3)C[C@H]2C(=O)NC2(CC(C)(C)C2)C(=O)N(C)[C@@H](C2CCCC2)C(=O)N(C)[C@H](C(=O)N(C)C)CC(=O)N1C [PP2994] | AA (a compound having 20 or more is denoted as AA) | A (a compound having 10 or more and less than 20 is denoted as A) |
| CCC[C@H]1C(=O)N[C@@H]([C@@H](C)CC)C(=O)N(C)CC(=O)N(C)[C@H]2C/C=C\CCN(C2=O)[C@@H](Cc2ccc(C)cc2)C(=O)N(C)CC(=O)N[C@@H](CCc2cc(F)c(C(F)(F)F)c(F)c2)C(=O)N2C[C@H](OCC)C[C@H]2C(=O)NC2(CC(C)(C)C2)C(=O)N(C)[C@@H](CC(C)C)C(=O)N(C)[C@H](C(=O)N(C)C)CC(=O)N1C [PP2995] | A (a compound having 10 or more and less than 20 is denoted as A) | A (a compound having 10 or more and less than 20 is denoted as A) |
| CCC[C@H]1C(=O)N[C@@H](C2CCCCC2)C(=O)N(C)CC(=O)N(C)[C@H]2C/C=C\CCN(C2=O)[C@@H](Cc2ccc(C(F)(F)F)cc2)C(=O)N(C)CC(=O)N[C@@H](CCc2ccc(C(F)(F)F)c(Cl)c2)C(=O)N2C[C@H](OCC)C[C@H]2C(=O)NC2(CC(C)(C)C2)C(=O)N(C)[C@@H](C2CCCC2)C(=O)N(C)[C@H](C(=O)N(C)C)CC(=O)N1C [PP2996] | AA (a compound having 20 or more is denoted as AA) | A (a compound having 10 or more and less than 20 is denoted as A) |
| CCC[C@H]1C(=O)N[C@@H]([C@@H](C)CC)C(=O)N(C)CC(=O)N(C)[C@H]2C/C=C\CCN(C2=O)[C@@H](Cc2ccc(C)cc2)C(=O)N(C)CC(=O)N[C@@H](CCc2cc(F)c(C(F)(F)F)c(F)c2)C(=O)N2CC3(CC3)C[C@H]2C(=O)NC2(CC(C)(C)C2)C(=O)N(C)[C@@H](CC(C)(C)C)C(=O)N(C)[C@H](C(=O)N(C)C)CC(=O)N1C [PP2997] | A (a compound having 10 or more and less than 20 is denoted as A) | B (a compound having 3 or more and less than 10 is denoted as B) |
| CCC[C@H]1C(=O)N[C@@H](C2CCCCC2)C(=O)N(C)CC(=O)N(C)[C@H]2C/C=C\CCN(C2=O)[C@@H](Cc2ccc(C)cc2)C(=O)N(C)CC(=O)N[C@@H](CCc2ccc(C(F)(F)F)c(Cl)c2)C(=O)N2C[C@H](OCC)C[C@H]2C(=O)NC2(CC(C)(C)C2)C(=O)N(C)[C@@H](C2CCCC2)C(=O)N(C)[C@H](C(=O)N(C)C)CC(=O)N1C [PP2998] | A (a compound having 10 or more and less than 20 is denoted as A) | AA (a compound having 20 or more is denoted as AA) |
